Here are results for 6 compounds from US12655465B2, “System for detecting and characterizing a microorganism” (Q-Linea AB, priority 2016, dated 2026).

In brackets after ≈: the same amount, converted by molar mass.

Test [1] deals with E. coli. The settings on record: determined by another lab; cited from earlier work.
Test [2] concerns E. coli. Description: AST by flow cytometry type counting of individual bacteria (Aquila 400), MIC from differential growth. It is filed as cell-based. The settings on record: Aquila 400 counting; for MIC: Escherichia coli. How it is done: The sample was enriched for bacteria and at the same time the culture media was changed, in this case to Mueller-Hinton media (MH-media). E. coli bacteria were recovered via filtration through a 0.2 μm filter and the recovered bacteria were resuspended in MH-media to a concentration of approximately 10^8 CFU/ml in Müller Hinton broth before being diluted to approximately 10^6 CFU/ml in Müller Hinton Broth. Antibiotic solutions were prepared in a series of 2:1 serial dilutions in Müller Hinton broth at 10× test concentrations. The range of antibiotic concentrations was chosen based on identity of the bacteria and the antibiotic. As the microorganism identified in Example 1 was E. coli in this case the following antibiotics were selected for use in the antimicrobial susceptibility test: Ciprofloxacin, Piperacillin+Tazobactam, Cefotaxime, Ceftazidim, Meropenem and Gentamicin. A series of eight different concentrations was selected based on known clinical MIC values. Eight sample tubes containing 100 μl antibiotic solution at eight different concentrations and 800 μl Müller Hinton broth were prepared. One additional tube contains 900 μl Müller Hinton broth and no antibiotic as positive control. 100 μl bacterial suspension (10^6 CFU/ml) was added to all nine tubes. A negative control sample comprising 1000 μl Müller Hinton broth (i.e., no bacteria) is prepared as negative control. All tubes were incubated at 35° C. and samples were taken after 0, 4, 6 and 24 hours. Bacterial samples were prepared for counting as in Example 2. Bacterial AST profiles were determined using a flow cytometry based counting of individual bacteria in an Aquila 400™ instrument (Q-linea AB, Sweden). Aquila 400 analysis was performed using the alexa 488™ laser. It was evident from the analysis performed at different time points that 4 hours was sufficient for detecting differential bacterial growth at the different concentration of antibiotics and thus to determine antibiotic susceptibility. Shorter times have been shown in the literature so this is not unexpected. MIC values for each antibiotic at different time points and cut-off values were calculated based on the differential bacterial growth. Values obtained by this method compared favorably with previously reported clinical MIC values and are shown below.
In general terms: In flow cytometry, cells or beads pass a laser one at a time.

Test [3] relates to E. coli. Description: MIC with Macrobroth dilution. It is filed as cell-based. The note with it: reference method; for MIC: Escherichia coli. Background: In broth dilution the organism is exposed to a series of concentrations in liquid medium.
Where [4] appears, read: 4 h, cut-off 5%, 4 hours incubation at 35° C. in Müller Hinton broth, read-out: MIC, 4 hours.
Where [5] appears, read: 4 h, cut-off 10%, 4 hours, read-out: MIC, 4 hours.
[6] abbreviates: 4 h, cut-off 15%, 4 hours, read-out: MIC, 4 hours.
Where [7] appears, read: 4 h, cut-off 20%, 4 hours, read-out: MIC, 4 hours.
[8] abbreviates: 6 h, cut-off 5%, 6 hours, read-out: MIC, 6 hours.
[9] abbreviates: 6 h, cut-off 10%, 6 hours, read-out: MIC, 6 hours.
Setting [10] is: 6 h, cut-off 15%, 6 hours, read-out: MIC, 6 hours.
The mark [11] stands for this setting: 6 h, cut-off 20%, 6 hours, read-out: MIC, 6 hours.
Where [12] appears, read: 24 h, cut-off 5%, 24 hours, read-out: MIC, 24 hours.
The mark [13] stands for this setting: 24 h, cut-off 10%, 24 hours, read-out: MIC, 24 hours.
[14] abbreviates: 24 h, cut-off 15%, 24 hours, read-out: MIC, 24 hours.
[15] abbreviates: 24 h, cut-off 20%, 24 hours, read-out: MIC, 24 hours.
Setting [16] is: cut-off 5%, 4 hours incubation at 35° C. in Müller Hinton broth.

In general, MIC refers to the least concentration at which growth counts as inhibited. Consider `O=C(O)c1cn(C2CC2)c2cc(N3CCNCC3)c(F)cc2c1=O` [Ciprofloxacin], for which the “MIC with E-test” value with E. coli [1] is at most 0.03 µg/mL. Besides, the minimum inhibitory concentration (MIC) in the test with E. coli [2] (setting [4]) worked out at 0.016 µg/mL (≈ 0.0483 µM); in the test on E. coli [2] (setting [5]), 0.008 µg/mL (≈ 0.0241 µM); with E. coli [2] (setting [6]) it was 0.008 µg/mL (≈ 0.0241 µM); with E. coli [2] (setting [7]), 0.008 µg/mL (≈ 0.0241 µM); in the test on E. coli [2] (setting [8]) it was 0.008 µg/mL (≈ 0.0241 µM); with E. coli [2] (setting [9]), 0.008 µg/mL (≈ 0.0241 µM). For the same compound, the MIC worked out at 0.008 µg/mL (≈ 0.0241 µM) in the test on E. coli [2] (setting [10]); 0.004 µg/mL (≈ 0.0121 µM) in the test with E. coli [2] (setting [11]); 0.008 µg/mL (≈ 0.0241 µM) in the test with E. coli [2] (setting [12]); 0.008 µg/mL (≈ 0.0241 µM) in the test on E. coli [2] (setting [13]); 0.008 µg/mL (≈ 0.0241 µM) with E. coli [2] (setting [14]); 0.008 µg/mL (≈ 0.0241 µM) in the test on E. coli [2] (setting [15]). Besides, the MIC against E. coli [3] worked out at 0.016 µg/mL (≈ 0.0483 µM).

Consider `C[C@@H](O)[C@H]1C(=O)N2C(C(=O)O)=C(S[C@@H]3CN[C@H](C(=O)N(C)C)C3)[C@H](C)[C@H]12` [Meropenem], for which, in the test on E. coli [1], the “MIC with E-test” value was at most 0.25 µg/mL. Also, the MIC in the test on E. coli [2] (setting [7]) was found to be 0.5 µg/mL (≈ 1.3 µM); in the test on E. coli [2] (setting [10]), 0.5 µg/mL (≈ 1.3 µM); with E. coli [2] (setting [11]), 0.25 µg/mL (≈ 0.652 µM); with E. coli [2] (setting [12]), 0.5 µg/mL (≈ 1.3 µM); with E. coli [2] (setting [13]) it was 0.5 µg/mL (≈ 1.3 µM); in the test with E. coli [2] (setting [14]) it was 0.25 µg/mL (≈ 0.652 µM). The MIC in the test with E. coli [2] (setting [15]) was 0.125 µg/mL (≈ 0.326 µM); against E. coli [3], 0.25 to 0.5 µg/mL (≈ 0.652 to 1.3 µM).

As for Gentamicin, the “MIC with E-test” value in the test on E. coli [1] is 1 µg/mL. The “MIC, 4 hours” value against E. coli [2] (setting [16]) is 1 µg/mL; against E. coli [2] (cut-off 10%, 4 hours), 0.5 µg/mL; against E. coli [2] (cut-off 15%, 4 hours) it was 0.5 µg/mL; against E. coli [2] (cut-off 20%, 4 hours), 0.5 µg/mL. Also, the “MIC, 6 hours” value in the test on E. coli [2] (cut-off 5%, 6 hours) turned out to be 0.5 µg/mL; against E. coli [2] (cut-off 10%, 6 hours), 0.5 µg/mL; in the test on E. coli [2] (cut-off 15%, 6 hours), 0.5 µg/mL; against E. coli [2] (cut-off 20%, 6 hours), 0.5 µg/mL. Besides, the “MIC, 24 hours” value came to 1 µg/mL in the test with E. coli [2] (cut-off 5%, 24 hours); 1 µg/mL against E. coli [2] (cut-off 10%, 24 hours); 1 µg/mL with E. coli [2] (cut-off 15%, 24 hours); 1 µg/mL in the test on E. coli [2] (cut-off 20%, 24 hours). In addition, the “MIC with Macrobroth dilution” value against E. coli [3] fell in the range of 0.5 to 1 µg/mL.

As to `CO/N=C(\C(=O)N[C@@H]1C(=O)N2C(C(=O)O)=C(COC(C)=O)CS[C@H]12)c1csc(N)n1` [Cefotaxime], the “MIC with E-test” value in the test on E. coli [1] is at most 0.5 µg/mL. In addition, the MIC worked out at 0.06 µg/mL (≈ 0.132 µM) in the test with E. coli [2] (setting [6]); 0.06 µg/mL (≈ 0.132 µM) with E. coli [2] (setting [7]); 0.06 µg/mL (≈ 0.132 µM) in the test on E. coli [2] (setting [8]); 0.06 µg/mL (≈ 0.132 µM) in the test on E. coli [2] (setting [9]); 0.03 µg/mL (≈ 0.0659 µM) with E. coli [2] (setting [10]); 0.03 µg/mL (≈ 0.0659 µM) in the test with E. coli [2] (setting [11]). Moreover, the MIC with E. coli [2] (setting [12]) was 0.125 µg/mL (≈ 0.274 µM); in the test with E. coli [2] (setting [13]) it was 0.125 µg/mL (≈ 0.274 µM); in the test on E. coli [2] (setting [14]), 0.06 µg/mL (≈ 0.132 µM); with E. coli [2] (setting [15]), 0.06 µg/mL (≈ 0.132 µM); with E. coli [3], 0.125 µg/mL (≈ 0.274 µM).

For Piperacillin and Tazobactam, in the test on E. coli [1], the “MIC with E-test” value was 2 µg/mL. In addition, the “MIC, 4 hours” value came to 4 µg/mL against E. coli [2] (setting [16]); 4 µg/mL in the test with E. coli [2] (cut-off 10%, 4 hours); 4 µg/mL with E. coli [2] (cut-off 15%, 4 hours); 4 µg/mL against E. coli [2] (cut-off 20%, 4 hours). The “MIC, 6 hours” value was determined as 4 µg/mL in the test on E. coli [2] (cut-off 5%, 6 hours); 4 µg/mL in the test on E. coli [2] (cut-off 10%, 6 hours); 4 µg/mL in the test with E. coli [2] (cut-off 15%, 6 hours); 2 µg/mL with E. coli [2] (cut-off 20%, 6 hours). The “MIC, 24 hours” value amounted to 4 µg/mL in the test with E. coli [2] (cut-off 5%, 24 hours); 4 µg/mL against E. coli [2] (cut-off 10%, 24 hours); 4 µg/mL with E. coli [2] (cut-off 15%, 24 hours); 2 µg/mL against E. coli [2] (cut-off 20%, 24 hours). Moreover, in the test with E. coli [3], the “MIC with Macrobroth dilution” value lay within 4 to 8 µg/mL.

As to `CC(C)(O/N=C(\C(=O)N[C@@H]1C(=O)N2C(C(=O)[O-])=C(C[n+]3ccccc3)CS[C@H]12)c1csc(N)n1)C(=O)O` [Ceftazidime], in the test with E. coli [1], the “MIC with E-test” value was at most 0.5 µg/mL. The MIC was 0.25 µg/mL (≈ 0.457 µM) in the test on E. coli [2] (setting [4]); 0.25 µg/mL (≈ 0.457 µM) in the test with E. coli [2] (setting [5]); 0.125 µg/mL (≈ 0.229 µM) in the test with E. coli [2] (setting [6]); 0.125 µg/mL (≈ 0.229 µM) in the test with E. coli [2] (setting [7]); 0.125 µg/mL (≈ 0.229 µM) in the test with E. coli [2] (setting [8]); 0.125 µg/mL (≈ 0.229 µM) in the test with E. coli [2] (setting [9]). In addition, the minimum inhibitory concentration (MIC) with E. coli [2] (setting [10]) turned out to be 0.125 µg/mL (≈ 0.229 µM); with E. coli [2] (setting [11]), 0.125 µg/mL (≈ 0.229 µM); with E. coli [2] (setting [12]), 0.25 µg/mL (≈ 0.457 µM); in the test on E. coli [2] (setting [13]), 0.25 µg/mL (≈ 0.457 µM); in the test on E. coli [2] (setting [14]) it was 0.25 µg/mL (≈ 0.457 µM); in the test on E. coli [2] (setting [15]) it was 0.25 µg/mL (≈ 0.457 µM). For the same compound, the minimal inhibitory concentration (MIC) against E. coli [3] was 0.25 µg/mL (≈ 0.457 µM).
